According to PubChem BioAssay (NCI):
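Test compounds were applied to cells in 96-well plates for 48 hours at 5 doses. TGI is the concentration that stops growth completely.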

Tests used:
Assay in all cases: NCI tumour cell line growth inhibition, 48 h
[1] = test system: SK-MEL-28 melanoma
[2] = test system: SK-OV-3 ovarian
[3] = test system: SN12C renal
[4] = test system: OVCAR-3 ovarian
[5] = test system: U251 CNS
[6] = test system: NCI-H226 lung
[7] = test system: K-562 leukemia
[8] = test system: LOX IMVI melanoma
[9] = test system: MDA-MB-435
[10] = test system: TK-10 renal
[11] = test system: SF-295 CNS
[12] = test system: OVCAR-8 ovarian
[13] = test system: 786-0 renal
[14] = test system: CAKI-1 renal
[15] = test system: IGROV1 ovarian
[16] = test system: UACC-62 melanoma
[17] = test system: MALME-3M melanoma
[18] = test system: A549 NSCLC
[19] = test system: HT29 colon
[20] = test system: CCRF-CEM leukemia
[21] = test system: RPMI-8226 leukemia
[22] = test system: SNB-75 CNS
[23] = test system: HOP-92 NSCLC
[24] = test system: NCI/ADR-RES ovarian
[25] = test system: NCI-H23 lung
[26] = test system: SF-539 CNS
[27] = test system: ACHN renal
[28] = test system: HOP-62 NSCLC
[29] = test system: HS 578T breast
[30] = test system: NCI-H522 lung
[31] = test system: T-47D breast
[32] = test system: MDA-N
[33] = test system: PC-3 prostate
[34] = test system: SNB-19 CNS
[35] = test system: MCF7 breast
[36] = test system: DU-145 prostate
[37] = test system: EKVX NSCLC
[38] = test system: KM12 colon
[39] = test system: BT-549 breast
[40] = test system: COLO 205 colon
[41] = test system: SW-620 colon
[42] = test system: HCT-116 colon
[43] = test system: SK-MEL-2 melanoma
[44] = test system: OVCAR-5 ovarian
[45] = test system: UO-31 renal
[46] = test system: SK-MEL-5 melanoma
[47] = test system: MOLT-4 leukemia
[48] = test system: HCT-15 colon
[49] = test system: M14 melanoma
[50] = test system: A498 renal
[51] = test system: SF-268 CNS
[52] = test system: UACC-257 melanoma
[53] = test system: MDA-MB-231 breast
[54] = test system: OVCAR-4 ovarian

Measured: TGI

CC(C)(C)C1=CC(O)(c2c3ccccc3c(C3(O)C=C(C(C)(C)C)C(=O)C(C(C)(C)C)=C3)c3ccccc23)C=C(C(C)(C)C)C1=O
0.65 µM: [50]
0.028 µM: [23]
0.0354 µM: [9]
> 100 µM: all other assays above
